Laboratory results as given in US20250382631A1, “PROTAC-CID SYSTEMS FOR USE IN MULTIPLEX GENE REGULATION” (William Marsh Rice University, priority 2022, published 2025).

Assays:
endogenous BRD4 = target: T1, endogenous BRD4 (Mus musculus, UniProt Q9ESU6); test: Immunoblot of endogenous BRD4 in mice liver tissue; type: in vivo, FVB mice; settings: 50 mg/kg MZ1 i.p., FIG. 21
T1 construct: Immunoblot analysis of endogenous long isoform BRD4 (BRD4L) after 50 mg/kg MZ1 treatment i.p; from tissue; host or cells: liver of FVB mice (AAV-infected, MZ1-treated)
Source text: Immunoblots and RT-qPCR. Mice liver tissues or culture cells were lysed in RIPA buffer (Abcam no. ab156034) supplemented with phosphatase inhibitor (Thermo Fisher Scientific no. PIA32957) and protease inhibitors (Fishers cientific no. A32965). Lysates were resolved by 10% Tris-glycine SDS-PAGE, transferred to PVDF membrane (Bio-Rad no. 1620177), and blotted with antibodies BRD4 (Abcam, ab128874), GAPDH (Cell Signaling Technology, 2118L), luciferase (ABclonal, requested), Ran (ABclonal, A0976), Hsp90 (Cell Signaling Technology, 4874). Images were acquired using LumiQuant AC600 (Acuronbio Technology Inc), quantification analysis was processed by ImageJ software. Trizol reagent (Sigma no. T9424) was used to extract total RNA from liver. RNAs were purified using RNeasy Mini kit (QIAGEN no. 4106). The quality and concentration of total RNA were checked on NanoDrop™ 2000/2000c Spectrophotometers (Thermo Fisher Scientific no. ND2000LAPTOP). Reverse transcription of total RNA was performed using a Applied Biosystems™ High-Capacity cDNA Reverse Transcription Kit (Thermo Fisher Scientific no. 4368813) and qPCR was conducted with SYBR Green Master Mix (Abclonal no. RK21203) on QuantStudio 6 Real-time PCR system (Thermo Fisher Scientific).
AAV production and Mouse for in vivo delivery. […] FVB mice were purchased from the Jackson Laboratory.

[1] = tested on: mutated Cre gene with 2-bp micro-deletion / GFP expression in HEK293T cells; test: Inducible prime editing repair of micro-deleted Cre, GFP reporter; type: cell-based, human; settings: 100 nM dTAG-13, FIGS. 3F and 18
Procedure: Fluorescence assay using flow cytometry analysis. Cells were treated with 0.05% Trpsin EDTA (Thermo Fisher Scientific no. 25300054) or TrypLE (Thermo Fisher Scientific no. 12605028) after transfection and centrifuged at 3000 g for 5 min. Supernatant was removed and the cell pellet was resuspended with 200 μL phosphate buffered saline (PBS) without calcium and magnesium (Thermo Fisher Scientific no. 10010023). Cells were transferred into 12×75 mm flow tubes (Global Scientific no. 110410). Cells were analyzed by MA900 flow cytometry (SONY). 405 nm laser (FL6 filter) was used for testing the BFP channel. 488 nm (FL1 filter) was used for testing the EYFP and GFP channel. Automated alignment using Automatic Setup Beads kit (SONY no. LE-B3001) is performed before running samples. In FIGS. 3A, 3B, and 17, experiments were performed under 2% FSC, 17% BSC, 24% FL1. […] Flow cytometry data was processed and analyzed by FlowJo 10. […] The mean intensity of the reporter fluorescent protein (BFP and EYFP) in viable and single cell populations were calculated by FlowJo 10 as the mean of FL6-A and FL1-A. When calculating the fold change of relative fluorescence units (RFU), the relative fluorescence units of EYFP was calculated by dividing the mean of fluorescence intensity of EYFP with the mean of BFP fluorescence intensity for normalization as the following formula: […]

Compound	expression of BRD4 in mice liver tissue (endogenous BRD4)	increase in GFP expression (prime editing repair of micro-deleted Cre) [1]
Cc1ncsc1-c1ccc(CNC(=O)[C@@H]2C[C@@H](O)CN2C(=O)[C@@H](NC(=O)COCCOCCOCCNC(=O)C[C@@H]2N=C(c3ccc(Cl)cc3)c3c(sc(C)c3C)-n3c(C)nnc32)C(C)(C)C)cc1 [MZ1]	did not observe a significant change in the expression of BRD4	
CC[C@H](C(=O)N1CCCC[C@H]1C(=O)O[C@H](CCc1ccc(OC)c(OC)c1)c1ccccc1OCC(=O)NCCCCCCOc1cccc2c1C(=O)N(C1CCC(=O)NC1=O)C2=O)c1cc(OC)c(OC)c(OC)c1 (some centres unmarked) [dTAG-13]		more than 25 fold
